Measurements from US9737493B2, “Compositions and methods for modulating DNMT1 inhibitor activity” (University of Louisville Research Foundation, Inc., priority 2012, dated 2017).

Key:
Format in all cases: cell-based, human
A549 cells [1] = assay: Carboxy-H2DCFDA ROS detection, flow cytometry; details: A549, 2 μM, 8 h
Experimental: (§1) FIG. 7: XB05 Induces ROS. (A) Cells were treated with either vehicle, tert-butyl hydrogen peroxide (TBHP, 100 μM, 3 h) or XB05 (8 h with 1 μM for U937 and Hs27, or 2 μM for A549), then stained with carboxy-H2DCFDA and PI for analysis by flow cytometry. Histograms illustrate representative data and bar graphs show the increase (over vehicle control) in the percentage of PI-negative (viable) cells with positive DCF fluorescence in each sample. Bars represent the mean+/−SEM from three independent experiments. […] (B) Cells were treated with XB05 as described in part A. As a positive control for superoxide production, cells were treated with Antimycin A (10 μM) for 1 h. Cells were harvested and subjected to MitoSOX™ Red staining for analysis by flow cytometry as described in Methods. Histograms illustrate representative data and bar graphs show the mean+/−SEM for three independent experiments.
(§2) Flow Cytometric Assays. Analyses were performed using a FACScalibur flow cytometer (BD Biosciences, Mountain View, Calif.) and FlowJo software (Tree Star, Inc., Ashland, Oreg.). Cells were treated as indicated in the figures and in the Brief Description of the Drawings. Cells were harvested by using TrypLE Cell Dissociation Reagent (Life Technologies). For cell death analyses, cells (adherent and detached cells) were stained with annexin-V-FITC and propidium iodide (PI) using the Apoptosis Detection Kit (BD Biosciences, San Jose, Calif.), according to the manufacturer's instructions. For cell-cycle distribution, cells were fixed, and stained with PI using the Cycle Test Plus kit (Becton Dickinson, Franklin Lakes, N.J.). For detection of γ-H2AX, cells were washed with PBS and fixed in 4% paraformaldehyde in PBS for 10 min at 37° C. Cells were then permeabilized in 90% methanol for 30 min on ice, blocked in 2% BSA (w/v in PBS) for 1 h, and incubated with γ-H2AX antibody or rabbit IgG isotype control (Santa Cruz, sc-2027) (0.3 μg/mL in 1% BSA) for 1 h. […] Cells were then washed twice with PBS, re-suspended at a density of 1×10^6 cells/mL in PBS and analyzed by flow cytometry.

U937 cells [2] = assay: Carboxy-H2DCFDA ROS detection, flow cytometry; details: U937, 1 μM, 8 h
Experimental: as §1, §2

Hs27 cells [3] = assay: Carboxy-H2DCFDA ROS detection, flow cytometry; details: Hs27, 1 μM, 8 h
Experimental: as §1, §2

A549 cells [4] = assay: Western blot for PARP-1 and caspase-3 cleavage; details: A549, 2 μM XB05
Experimental: (§3) FIG. 3: XB05 Induces Apoptotic and Nonapoptotic Cell Death in Malignant Cell Lines. (A) Trypan blue exclusion assay for three human cell lines following treatment with XB05 for 72 h at the concentrations indicated. Data points represent the mean+/−SEM for three independent experiments. (B) Representative phase contrast microscopy images of cells treated with vehicle (72 h), XB05 (72 h with 1 μM for U937 and Hs27, or 2 μM for A549), or 6 μg/mL camptothecin (U937 for 6 h, A549 and Hs27 for 48 h). Cells undergoing apoptotic (black arrows) or non-apoptotic (white arrows) cell death are indicated. (C) Whole cell extracts from cells treated with vehicle, camptothecin, or XB05, as described in part B were western blotted for biochemical markers of apoptosis and GAPDH (loading control). […]
(§4) Western Blotting. […] Proteins were detected using the following primary antibody concentrations: PARP-1 (1:1000), cleaved caspase-3 (1:1000), γ-H2AX (Ser139) ([…]), phospho-eIF2α (Ser51) (1:1000), eIF2α (1:1000), Bip (1:1000), Nrf2 (1:1000), Ku-70 (1:1000) and GAPDH (1:1000). […] Where indicated, band intensities were quantified using the UN-SCAN-IT Gel digitizing software (Silk Scientific, Orem Utah) and normalized to vehicle control.

U937 cells [5] = assay: Western blot for PARP-1 and caspase-3 cleavage; details: U937, 1 μM XB05
Experimental: as §3, §4

A549 cells [6] = assay: Trypan blue exclusion assay; details: A549, 2 μM, 72 h
Experimental: (§5) FIG. 3: XB05 Induces Apoptotic and Nonapoptotic Cell Death in Malignant Cell Lines. (A) Trypan blue exclusion assay for three human cell lines following treatment with XB05 for 72 h at the concentrations indicated. Data points represent the mean+/−SEM for three independent experiments. (B) Representative phase contrast microscopy images of cells treated with vehicle (72 h), XB05 (72 h with 1 μM for U937 and Hs27, or 2 μM for A549), or 6 μg/mL camptothecin (U937 for 6 h, A549 and Hs27 for 48 h). Cells undergoing apoptotic (black arrows) or non-apoptotic (white arrows) cell death are indicated. (C) Whole cell extracts from cells treated with vehicle, camptothecin, or XB05, as described in part B were western blotted for biochemical markers of apoptosis and GAPDH (loading control). Apoptosis is indicated by cleavage of full-length PARP-1 (116 kDa) to an 89 kDa fragment, and by appearance of bands (17 kDa, 19 kDa) recognized by an antibody specific to cleaved (activated) forms of caspase-3. (D) Flow cytometric analysis of annexin V-FITC/propidium Iodide (PI) staining for malignant cells treated with vehicle, camptothecin or XB05 as described in part B, in the presence or absence of the pan-caspase inhibitor Z-VAD-fmk (100 μM).
(§6) After 72 h, cells were trypsinized (in the case of adherent cells), stained with trypan blue solution (0.4%) (BioRad, Hercules Calif.) and cell number and percent viability determined on a TC10 automated cell counter (BioRad) using triplicate measurements for each sample. Phase contrast microscopy images were obtained on an EVOSfI digital inverted microscope (Advanced Microscopy Group, Bothell, Wash.).

U937 cells [7] = assay: Trypan blue exclusion assay; details: U937, 1 μM, 72 h
Experimental: as §5, §6

Hs27 cells [8] = assay: Trypan blue exclusion assay; details: Hs27, 72 h
Experimental: as §5, §6

A549 cells [9] = assay: DNA content (PI) cell cycle analysis
Experimental: (§7) FIG. 6: DNA Content Analysis for Malignant Cells treated with XB05. (A) U937 and A549 cells were treated with XB05 at the concentrations indicated for 24, 48 and 72 h. At each time point, the cells were harvested and subjected to propidium iodide (PI) staining for DNA content analysis as described in Methods. (B) Tables showing percentage of cycling cells (non-SubG1) in various phases of the cell cycle after treatment with vehicle or XB05 as indicated in FIG. 6A.
as §2, with “N.J.).” for “N.J.). For detection of γ-H2AX, cells were washed with PBS and fixed in 4% paraformaldehyde in PBS for 10 min at 37° C. Cells were then permeabilized in 90% methanol for 30 min on ice, blocked in 2% BSA (w/v in PBS) for 1 h, and incubated with γ-H2AX antibody or rabbit IgG isotype control (Santa Cruz, sc-2027) (0.3 μg/mL in 1% BSA) for 1 h.”

U937 cells [10] = assay: DNA content (PI) cell cycle analysis; details: U937, 24 h
Experimental: as §7
as §2, with “N.J.).” for “N.J.). For detection of γ-H2AX, cells were washed with PBS and fixed in 4% paraformaldehyde in PBS for 10 min at 37° C. Cells were then permeabilized in 90% methanol for 30 min on ice, blocked in 2% BSA (w/v in PBS) for 1 h, and incubated with γ-H2AX antibody or rabbit IgG isotype control (Santa Cruz, sc-2027) (0.3 μg/mL in 1% BSA) for 1 h.”

CCCCCC(O)C#CC(F)(F)Br (stereo not shown) [XB05]
levels of ROS (DCF-positive viable cells) (A549 cells [1]): elevated | levels of ROS (DCF-positive viable cells) (U937 cells [2]): elevated | levels of ROS (DCF-positive viable cells) (Hs27 cells [3]): elevated | time at which PARP-1 and caspase-3 cleavage were apparent (A549 cells [4]): 48 h | time at which PARP-1 and caspase-3 cleavage were apparent (U937 cells [5]): ≤ 24 h | cell death (trypan blue exclusion) (A549 cells [6]): modest cell death | cell death (trypan blue exclusion) (U937 cells [7]): robust cell death | cell death (trypan blue exclusion) (Hs27 cells [8]): lowest levels of cell death | proportion of cells in G2/M phase (A549 cells [9]): very modest increase in the G2/M fraction | proportion of cells in G2/M phase (U937 cells [10]): pronounced increase in the proportion of cells in G2/M phase
